How the values were obtained:
Human δ-opioid (DOP) = biological target: T1, Human δ-opioid (DOP) (Homo sapiens, UniProt P41143); experiment: Radioligand binding, human δ-opioid (DOP) membranes, FlashPlate, [3H]-Bremazocine; conditions: compound at 10 μM, [3H]-Bremazocine; for A1: inhibition of radioligand binding: human DOP membranes
T1 construct: purchased Perkin Elmer Biosignal
In short: (§1)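 Cloned human receptor membranes were coated onto FlashPlate wells and incubated with radioligand and compound (added from a 0.5 mM DMSO daughter plate) for 1 hour at room temperature in the dark. Scintillation counting gave percent inhibition, with DMSO defining total and reference ligand defining non-specific binding.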

Human κ-Opioid (KOP) = biological target: T2, Human κ-Opioid (KOP) (Homo sapiens, UniProt P41145); experiment: Radioligand binding, human κ-opioid (KOP) membranes, filtration, [3H]-Diprenorphine; conditions: compound at 10 μM, [3H]-Diprenorphine; for A2: inhibition of radioligand binding: human KOP membranes
T2 construct: purchased Perkin Elmer Biosignal
T2 sequence (P41145 whole entry): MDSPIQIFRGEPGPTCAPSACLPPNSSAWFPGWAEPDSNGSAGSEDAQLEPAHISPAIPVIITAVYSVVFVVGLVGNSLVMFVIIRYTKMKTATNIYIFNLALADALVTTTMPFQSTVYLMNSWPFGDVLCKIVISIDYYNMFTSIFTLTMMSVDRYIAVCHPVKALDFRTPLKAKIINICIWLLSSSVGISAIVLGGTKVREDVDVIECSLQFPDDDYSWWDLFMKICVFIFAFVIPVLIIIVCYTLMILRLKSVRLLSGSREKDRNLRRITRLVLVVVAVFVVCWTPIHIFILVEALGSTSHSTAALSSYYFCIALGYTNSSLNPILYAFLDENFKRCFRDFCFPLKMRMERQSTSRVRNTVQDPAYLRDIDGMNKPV
In short: (§2)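 Filtration binding on cloned human receptor membranes (1 Unit/well), [125I]-Substance P for NK1 and [3H]-Diprenorphine for KOP, 1 h at room temperature. Filters PEI-presoaked, washed with cold 50 mM Tris-HCl pH 7.4, counted by scintillation; percent inhibition calculated, reference ligand defining non-specific binding.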

Human Melanocortin (MC3) = biological target: T3, Human Melanocortin (MC3) (Homo sapiens, UniProt P41968); experiment: Radioligand binding, human melanocortin MC3 membranes, FlashPlate, [125I]-NDP-αMSH; conditions: compound at 10 μM, [125I]-NDP-αMSH; for A3: inhibition of radioligand binding: human MC3 membranes
T3 construct: purchased Perkin Elmer Biosignal
T3 sequence (P41968 whole entry): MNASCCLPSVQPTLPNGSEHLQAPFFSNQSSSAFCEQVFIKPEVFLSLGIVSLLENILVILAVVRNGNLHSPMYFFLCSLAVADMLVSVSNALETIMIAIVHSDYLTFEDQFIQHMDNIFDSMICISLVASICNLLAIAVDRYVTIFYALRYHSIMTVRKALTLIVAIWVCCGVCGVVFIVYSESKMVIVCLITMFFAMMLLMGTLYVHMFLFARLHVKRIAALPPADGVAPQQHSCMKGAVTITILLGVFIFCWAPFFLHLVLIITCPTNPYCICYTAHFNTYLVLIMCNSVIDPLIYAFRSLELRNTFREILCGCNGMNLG
In short: as §1

Human Melanocortin (MC4) = biological target: T4, Human Melanocortin (MC4) (Homo sapiens, UniProt P32245); experiment: Radioligand binding, human melanocortin MC4 membranes, FlashPlate, [125I]-NDP-αMSH; conditions: compound at 10 μM, [125I]-NDP-αMSH; for A4: inhibition of radioligand binding: human MC4 membranes
T4 construct: purchased Perkin Elmer Biosignal
T4 sequence (P32245 whole entry): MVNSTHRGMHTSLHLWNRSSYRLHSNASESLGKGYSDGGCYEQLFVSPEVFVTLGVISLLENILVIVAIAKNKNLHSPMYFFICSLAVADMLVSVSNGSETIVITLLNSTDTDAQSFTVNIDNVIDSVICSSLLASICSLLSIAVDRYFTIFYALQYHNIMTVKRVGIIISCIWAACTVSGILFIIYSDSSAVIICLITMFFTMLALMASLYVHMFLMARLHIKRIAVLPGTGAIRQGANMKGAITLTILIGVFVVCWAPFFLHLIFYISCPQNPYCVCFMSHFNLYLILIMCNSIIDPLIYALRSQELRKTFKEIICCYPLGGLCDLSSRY
In short: as §1

Human melanocortin (MC5) = biological target: T5, Human melanocortin (MC5) (Homo sapiens, UniProt P33032); experiment: Radioligand binding, human melanocortin MC5 membranes, FlashPlate, [125I]-NDP-αMSH; conditions: compound at 10 μM, [125I]-NDP-αMSH; for A5: inhibition of radioligand binding: human MC5 membranes
T5 construct: purchased Perkin Elmer Biosignal
T5 sequence (P33032 whole entry): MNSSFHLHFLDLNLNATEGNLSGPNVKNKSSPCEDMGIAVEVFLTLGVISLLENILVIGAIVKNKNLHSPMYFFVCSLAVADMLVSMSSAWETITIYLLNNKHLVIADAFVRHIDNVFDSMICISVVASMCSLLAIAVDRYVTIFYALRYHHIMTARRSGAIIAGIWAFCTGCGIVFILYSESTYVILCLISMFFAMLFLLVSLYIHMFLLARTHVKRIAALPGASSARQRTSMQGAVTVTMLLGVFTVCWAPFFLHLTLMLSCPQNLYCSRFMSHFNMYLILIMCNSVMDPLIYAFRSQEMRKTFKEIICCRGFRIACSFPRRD
In short: as §1

[1] = biological target: T6, Human melanin-concentrating hormone (MCH1) (Homo sapiens, UniProt Q99705); experiment: Radioligand binding, human melanin-concentrating hormone MCH1 membranes, FlashPlate, [125I]-S36057; conditions: compound at 10 μM; for A6: inhibition of radioligand binding: [125I]-S36057, human MCH1 membranes
T6 construct: purchased Perkin Elmer Biosignal
T6 sequence (Q99705 whole entry): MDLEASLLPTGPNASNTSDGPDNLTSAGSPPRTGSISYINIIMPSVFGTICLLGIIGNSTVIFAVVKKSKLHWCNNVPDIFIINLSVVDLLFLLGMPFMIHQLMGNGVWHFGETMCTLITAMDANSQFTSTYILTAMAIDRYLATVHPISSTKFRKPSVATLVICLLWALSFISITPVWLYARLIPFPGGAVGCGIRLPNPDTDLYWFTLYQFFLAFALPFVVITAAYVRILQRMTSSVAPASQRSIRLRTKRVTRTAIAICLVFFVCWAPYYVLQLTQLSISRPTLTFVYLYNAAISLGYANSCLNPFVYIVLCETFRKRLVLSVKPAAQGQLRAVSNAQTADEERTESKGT
In short: as §1

Human μ-opioid (MOP) = biological target: T7, Human μ-opioid (MOP) (Homo sapiens, UniProt P35372); experiment: Radioligand binding, human μ-opioid (MOP) membranes, FlashPlate, [3H]-Naloxone; conditions: compound at 10 μM, [3H]-Naloxone; for A7: inhibition of radioligand binding: human MOP membranes
T7 construct: purchased Perkin Elmer Biosignal
T7 sequence (P35372 whole entry): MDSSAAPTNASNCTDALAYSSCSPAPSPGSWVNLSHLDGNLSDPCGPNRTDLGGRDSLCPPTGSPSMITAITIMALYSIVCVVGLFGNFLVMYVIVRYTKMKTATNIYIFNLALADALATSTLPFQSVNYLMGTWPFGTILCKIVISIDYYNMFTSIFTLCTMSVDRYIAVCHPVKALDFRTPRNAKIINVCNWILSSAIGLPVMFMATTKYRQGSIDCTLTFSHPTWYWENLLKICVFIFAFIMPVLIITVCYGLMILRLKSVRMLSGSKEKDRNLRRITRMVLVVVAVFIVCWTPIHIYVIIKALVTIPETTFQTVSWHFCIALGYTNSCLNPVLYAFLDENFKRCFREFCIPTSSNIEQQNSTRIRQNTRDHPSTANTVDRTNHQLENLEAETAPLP
In short: as §1

Human neurokinin (NK1) = biological target: T8, Human neurokinin (NK1) (Homo sapiens, UniProt P25103); experiment: Radioligand binding, human neurokinin NK1 membranes, filtration, [125I]-Substance P; conditions: compound at 10 μM, [125I]-Substance P; for A8: inhibition of radioligand binding: human NK1 membranes
T8 construct: purchased Perkin Elmer Biosignal
T8 sequence (P25103 whole entry): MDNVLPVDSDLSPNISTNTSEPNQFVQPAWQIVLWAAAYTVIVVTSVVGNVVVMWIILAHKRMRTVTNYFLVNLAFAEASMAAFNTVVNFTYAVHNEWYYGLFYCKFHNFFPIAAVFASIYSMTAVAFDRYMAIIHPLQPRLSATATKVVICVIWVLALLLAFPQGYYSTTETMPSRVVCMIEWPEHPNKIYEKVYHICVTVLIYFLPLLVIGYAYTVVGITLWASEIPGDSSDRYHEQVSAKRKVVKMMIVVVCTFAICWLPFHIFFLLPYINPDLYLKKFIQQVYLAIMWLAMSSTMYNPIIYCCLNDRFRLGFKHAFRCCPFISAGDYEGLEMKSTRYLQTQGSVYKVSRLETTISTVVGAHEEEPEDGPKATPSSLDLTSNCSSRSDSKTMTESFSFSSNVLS
In short: as §2

[2] = biological target: T9, Human neuropeptide Y (NPY-Y1) (Homo sapiens, UniProt P25929); experiment: Radioligand binding, human neuropeptide Y NPY-Y1 membranes, FlashPlate, [125I]-PYY; conditions: compound at 10 μM, [125I]-PYY; for A9: inhibition of radioligand binding: human NPY-Y1 membranes
T9 construct: purchased Perkin Elmer Biosignal
T9 sequence (P25929 1-384): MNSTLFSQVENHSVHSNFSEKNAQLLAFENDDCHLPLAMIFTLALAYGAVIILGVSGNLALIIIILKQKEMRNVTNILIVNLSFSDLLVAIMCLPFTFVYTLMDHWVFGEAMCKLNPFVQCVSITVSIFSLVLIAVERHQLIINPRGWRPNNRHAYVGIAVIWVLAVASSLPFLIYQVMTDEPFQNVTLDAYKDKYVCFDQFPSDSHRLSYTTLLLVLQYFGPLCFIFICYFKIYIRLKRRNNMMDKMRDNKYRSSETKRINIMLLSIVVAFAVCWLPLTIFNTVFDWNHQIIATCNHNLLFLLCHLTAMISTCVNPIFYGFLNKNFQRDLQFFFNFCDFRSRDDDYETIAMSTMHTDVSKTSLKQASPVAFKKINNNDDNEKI
In short: as §1

Human opioid (ORL1) = biological target: T10, Human opioid (ORL1) (Homo sapiens, UniProt P41146); experiment: Radioligand binding, human opioid ORL1 membranes, FlashPlate, [125I]-Nociceptin; conditions: compound at 10 μM, [125I]-Nociceptin; for A10: inhibition of radioligand binding: human ORL1 membranes
T10 construct: purchased Perkin Elmer Biosignal
T10 sequence (P41146 whole entry): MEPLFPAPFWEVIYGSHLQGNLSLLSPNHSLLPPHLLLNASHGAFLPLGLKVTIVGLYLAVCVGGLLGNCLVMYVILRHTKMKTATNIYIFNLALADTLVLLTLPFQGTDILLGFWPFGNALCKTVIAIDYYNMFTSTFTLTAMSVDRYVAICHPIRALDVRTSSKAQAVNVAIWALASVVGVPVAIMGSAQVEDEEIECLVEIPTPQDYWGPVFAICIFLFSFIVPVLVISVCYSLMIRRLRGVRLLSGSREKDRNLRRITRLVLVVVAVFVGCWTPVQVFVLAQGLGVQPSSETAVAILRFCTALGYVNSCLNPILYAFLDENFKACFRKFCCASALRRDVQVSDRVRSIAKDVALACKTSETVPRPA
In short: as §1

Mouse urotensin (mUR2) = biological target: T11, Mouse urotensin (mUR2) (Mus musculus, UniProt Q8VIH9); experiment: Radioligand binding, mouse urotensin mUR2 membranes, FlashPlate, [125I]-Urotensin II; conditions: compound at 10 μM, [125I]-Urotensin II; for A11: inhibition of radioligand binding: mouse mUR2 membranes
T11 construct: purchased Perkin Elmer Biosignal
T11 sequence (Q8VIH9 1-385): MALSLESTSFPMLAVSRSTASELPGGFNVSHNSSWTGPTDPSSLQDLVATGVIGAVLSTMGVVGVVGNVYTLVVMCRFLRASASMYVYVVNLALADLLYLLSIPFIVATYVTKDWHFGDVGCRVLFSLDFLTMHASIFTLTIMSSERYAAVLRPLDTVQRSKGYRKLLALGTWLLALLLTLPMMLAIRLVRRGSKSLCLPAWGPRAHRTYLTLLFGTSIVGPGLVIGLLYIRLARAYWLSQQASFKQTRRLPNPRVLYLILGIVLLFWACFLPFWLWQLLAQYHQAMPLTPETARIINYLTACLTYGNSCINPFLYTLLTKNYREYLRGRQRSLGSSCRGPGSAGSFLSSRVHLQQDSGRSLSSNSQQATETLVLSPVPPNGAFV
In short: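 Cloned mouse urotensin (mUR2) receptor membranes from Perkin Elmer Biosignal were immobilized in FlashPlate microplates using a proprietary coating. Each well got 19.5 μl buffer, then 0.5 μl of DMSO, reference ligand, or compound. Adding 5 μl of [125I]-Urotensin II, diluted to 5× final concentration in binding buffer, started binding. Plates were sealed with TopSeal-A and incubated 1 hour at room temperature in the dark. Wells were counted for 30 seconds each on a TopCount after a 60-second delay, and percentage inhibition was calculated.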

T1 sequence (P41143 whole entry): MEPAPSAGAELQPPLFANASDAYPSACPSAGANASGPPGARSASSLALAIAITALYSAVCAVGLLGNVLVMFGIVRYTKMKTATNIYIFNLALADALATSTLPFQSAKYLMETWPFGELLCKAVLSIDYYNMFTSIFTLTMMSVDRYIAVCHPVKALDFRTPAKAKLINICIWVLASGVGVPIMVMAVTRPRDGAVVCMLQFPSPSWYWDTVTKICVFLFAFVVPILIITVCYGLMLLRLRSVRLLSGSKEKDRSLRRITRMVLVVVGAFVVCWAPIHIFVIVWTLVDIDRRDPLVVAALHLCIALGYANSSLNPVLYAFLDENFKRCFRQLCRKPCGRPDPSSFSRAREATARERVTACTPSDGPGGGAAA

SMILES: NCCCC(=O)NC1C(OCc2ccc(Cl)cc2)OC(COCc2ccc3ccccc3c2)C(O)C1OCc1ccccc1 (single isomer, unassigned) [compound 501]
- A1: inhibition of radioligand binding, human δ-opioid (DOP) (Human δ-opioid (DOP)): − (“−” indicates less than 50% inhibition at 10 μM)
- A2: inhibition of radioligand binding, human κ-opioid (KOP) (Human κ-Opioid (KOP)): − (“−” indicates less than 50% inhibition at 10 μM)
- A3: inhibition of radioligand binding, human melanocortin (MC3) (Human Melanocortin (MC3); 10 µM): + (“+” indicates greater than 50% inhibition at 10 μM)
- A4: inhibition of radioligand binding, human melanocortin (MC4) (Human Melanocortin (MC4)): + (“+” indicates greater than 50% inhibition at 10 μM)
- A5: inhibition of radioligand binding, human melanocortin (MC5) (Human melanocortin (MC5)): + (“+” indicates greater than 50% inhibition at 10 μM)
- A6: inhibition of radioligand binding, human melanin-concentrating hormone (MCH1) ([1]; [125I]-S36057, 10 µM): − (“−” indicates less than 50% inhibition at 10 μM)
- A7: inhibition of radioligand binding, human μ-opioid (MOP) (Human μ-opioid (MOP); 10 µM): − (“−” indicates less than 50% inhibition at 10 μM)
- A8: inhibition of radioligand binding, human neurokinin (NK1) (Human neurokinin (NK1)): + (“+” indicates greater than 50% inhibition at 10 μM)
- A9: inhibition of radioligand binding, human neuropeptide Y (NPY-Y1) [2]: − (“−” indicates less than 50% inhibition at 10 μM)
- A10: inhibition of radioligand binding, human opioid (ORL1) (Human opioid (ORL1)): + (“+” indicates greater than 50% inhibition at 10 μM)
- A11: inhibition of radioligand binding, mouse urotensin (mUR2) (Mouse urotensin (mUR2)): − (“−” indicates less than 50% inhibition at 10 μM)

SMILES: NCCC(=O)N[C@H]1C(OCc2ccc3ccccc3c2)O[C@H](COCc2ccc(Cl)cc2)[C@@H](O)[C@@H]1OCc1ccc(Cl)cc1 (stereo partly drawn) [compound 441]
- A1: inhibition of radioligand binding (Human δ-opioid (DOP)): − (“−” indicates less than 50% inhibition at 10 μM)
- A2: inhibition of radioligand binding (Human κ-Opioid (KOP)): − (“−” indicates less than 50% inhibition at 10 μM)
- A3: inhibition of radioligand binding (Human Melanocortin (MC3); 10 µM): + (“+” indicates greater than 50% inhibition at 10 μM)
- A4: inhibition of radioligand binding (Human Melanocortin (MC4); 10 µM): + (“+” indicates greater than 50% inhibition at 10 μM)
- A5: inhibition of radioligand binding (Human melanocortin (MC5)): + (“+” indicates greater than 50% inhibition at 10 μM)
- A6: inhibition of radioligand binding [1]: + (“+” indicates greater than 50% inhibition at 10 μM)
- A7: inhibition of radioligand binding (Human μ-opioid (MOP)): − (“−” indicates less than 50% inhibition at 10 μM)
- A8: inhibition of radioligand binding (Human neurokinin (NK1)): + (“+” indicates greater than 50% inhibition at 10 μM)
- A9: inhibition of radioligand binding [2]: − (“−” indicates less than 50% inhibition at 10 μM)
- A10: inhibition of radioligand binding (Human opioid (ORL1)): − (“−” indicates less than 50% inhibition at 10 μM)
- A11: inhibition of radioligand binding (Mouse urotensin (mUR2)): − (“−” indicates less than 50% inhibition at 10 μM)

SMILES: NCCCC(=O)NC1C(OCc2ccc3ccccc3c2)OC(COCc2ccc3ccccc3c2)C(O)C1OCc1ccc(Cl)cc1 (single isomer, unassigned) [compound 454]
- A1: inhibition of radioligand binding (Human δ-opioid (DOP)): − (“−” indicates less than 50% inhibition at 10 μM)
- A2: inhibition of radioligand binding (Human κ-Opioid (KOP); 10 µM): − (“−” indicates less than 50% inhibition at 10 μM)
- A3: inhibition of radioligand binding (Human Melanocortin (MC3)): + (“+” indicates greater than 50% inhibition at 10 μM)
- A4: inhibition of radioligand binding (Human Melanocortin (MC4)): + (“+” indicates greater than 50% inhibition at 10 μM)
- A5: inhibition of radioligand binding (Human melanocortin (MC5)): + (“+” indicates greater than 50% inhibition at 10 μM)
- A6: inhibition of radioligand binding [1]: + (“+” indicates greater than 50% inhibition at 10 μM)
- A7: inhibition of radioligand binding (Human μ-opioid (MOP); 10 µM): + (“+” indicates greater than 50% inhibition at 10 μM)
- A8: inhibition of radioligand binding (Human neurokinin (NK1)): + (“+” indicates greater than 50% inhibition at 10 μM)
- A9: inhibition of radioligand binding [2]: − (“−” indicates less than 50% inhibition at 10 μM)
- A10: inhibition of radioligand binding (Human opioid (ORL1); 10 µM): + (“+” indicates greater than 50% inhibition at 10 μM)
- A11: inhibition of radioligand binding (Mouse urotensin (mUR2)): − (“−” indicates less than 50% inhibition at 10 μM)
